One assay concerns the target T1, FLT3 D835Y (Homo sapiens, UniProt P36888, D835Y).
T1 sequence (P36888 27-993 D835Y): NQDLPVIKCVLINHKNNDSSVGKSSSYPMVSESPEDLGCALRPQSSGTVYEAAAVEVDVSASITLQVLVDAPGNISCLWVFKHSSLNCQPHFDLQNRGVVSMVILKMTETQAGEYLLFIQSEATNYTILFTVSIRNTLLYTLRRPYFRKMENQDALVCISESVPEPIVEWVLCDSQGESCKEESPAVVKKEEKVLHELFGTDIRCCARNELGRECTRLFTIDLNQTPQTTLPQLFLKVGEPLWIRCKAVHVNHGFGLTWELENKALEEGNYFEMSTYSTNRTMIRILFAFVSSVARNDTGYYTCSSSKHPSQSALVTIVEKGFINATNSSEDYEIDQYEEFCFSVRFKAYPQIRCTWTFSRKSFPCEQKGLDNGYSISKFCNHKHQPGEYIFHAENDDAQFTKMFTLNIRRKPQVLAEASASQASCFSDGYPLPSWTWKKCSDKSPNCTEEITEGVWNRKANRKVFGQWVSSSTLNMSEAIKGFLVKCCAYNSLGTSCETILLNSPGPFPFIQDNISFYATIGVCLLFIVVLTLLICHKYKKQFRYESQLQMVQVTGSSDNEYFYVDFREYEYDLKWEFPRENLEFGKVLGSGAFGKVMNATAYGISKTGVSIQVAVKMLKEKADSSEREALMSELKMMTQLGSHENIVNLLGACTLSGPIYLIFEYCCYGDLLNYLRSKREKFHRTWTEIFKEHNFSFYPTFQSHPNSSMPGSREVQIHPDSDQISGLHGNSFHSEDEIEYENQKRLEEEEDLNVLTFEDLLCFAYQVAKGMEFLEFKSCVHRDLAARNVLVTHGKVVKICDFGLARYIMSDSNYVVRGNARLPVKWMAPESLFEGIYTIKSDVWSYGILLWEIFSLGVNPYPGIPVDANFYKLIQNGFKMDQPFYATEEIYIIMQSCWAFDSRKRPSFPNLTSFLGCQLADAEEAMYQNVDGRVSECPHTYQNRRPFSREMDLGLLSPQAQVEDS
Kind of assay: DiscoverX KINOMEscan active site-directed competition binding, FLT3 D835Y. As to conditions: Table 12; no ATP.
Source text: (§1) Kinase binding data were obtained for various exemplary compounds prepared according to Examples 1-8 using the DiscoverX KINOMEscan® active site-directed competition binding site-directed assay protocol described below. […] As a result, the data report thermodynamic interaction affinities (Kd values), rather than IC50 values that are dependent on ATP concentrations. The assay uses a DNA-tagged version of the protein kinase, and an immobilized ligand bound to a solid support. Compounds that directly or indirectly prevent kinase binding to the immobilized ligand reduce the amount of kinase captured on the solid support, which is detected using an ultra-sensitive qPCR method. Affinity constants reported from the assay have been reported to be independent of the immobilized ligand used that is coupled to the solid support (See supplemental information in Fabian, M. A. et. al., (2005) Nat. Biotechnol. 23, 329-336; Wodicka, L. M. et. al., (2010) Chem. Biol. 17, 1241-1249.)
Kinase-tagged T7 phage strains were prepared in an E. coli host derived from the BL21 strain. E. coli were grown to log-phase and infected with T7 phage and incubated with shaking at 32 °C until lysis. The lysates were centrifuged and filtered to remove cell debris. The remaining kinases were produced in HEK-293 cells and subsequently tagged with DNA for qPCR detection. Streptavidin-coated magnetic beads were treated with biotinylated small molecule ligands for 30 minutes at room temperature to generate affinity resins for kinase assays. The liganded beads were blocked with excess biotin and washed with blocking buffer (SeaBlock (Pierce), 1% BSA, 0.05% Tween 20, 1 mM DTT) to remove unbound ligand and to reduce non-specific binding. […] Test compounds were prepared as 111x stocks in 100% DMSO. Kds were determined using an 11-point 3-fold compound dilution series with three DMSO control points. All compounds for Kd measurements are distributed by acoustic transfer (non-contact dispensing) in 100% DMSO. The compounds were then diluted directly into the assays such that the final concentration of DMSO was 0.9%. All reactions were performed in polypropylene 384-well plates. Each was a final volume of 0.02 mL. The assay plates were incubated at room temperature with shaking for 1 hour and the affinity beads were washed with wash buffer (1×PBS, 0.05% Tween 20). The beads were then re-suspended in elution buffer (1×PBS, 0.05% Tween 20, 0.5 μM nonbiotinylated affinity ligand) and incubated at room temperature with shaking for 30 minutes. The kinase concentration in the eluates was measured by qPCR. Binding constants (Kds) were calculated with a standard dose-response curve using the Hill equation. The Hill Slope was set to −1. Curves were fitted using a non-linear least square fit with the Levenberg-Marquardt algorithm.
as §1, with “9-12” for “1-8”
Kinase-tagged T7 phage strains were prepared in an E. coli host derived from the BL21 strain. […]
`COc1cn2ncc(-c3nc(N[C@H]4CNCC[C@@H]4F)c(C#N)cc3F)c2nc1C1CC1` [Compound 7, 6-(5-cyclopropyl-6-methoxypyrazolo[1,5-a]pyrimidin-3-yl)-5-fluoro-2-(((3S,4S)-4-fluoropiperidin-3-yl)amino)nicotinonitrile] yielded a Kd of 0.42 nM. This lies in the sub-nanomolar range. For the compound `COc1cn2ncc(-c3nc(N[C@H]4CNCC[C@@H]4F)c(C#N)cc3F)c2nc1C(C)(C)O` [Compound 10, 5-fluoro-2-(((3S,4S)-4-fluoropiperidin-3-yl)amino)-6-(5-(2-hydroxypropan-2-yl)-6-methoxypyrazolo[1,5-a]pyrimidin-3-yl)nicotinonitrile], the Kd turned out to be 0.21 nM. Still for that read-out and setting: the same measure for `COc1cn2ncc(-c3nc(N[C@H]4CNCC[C@@H]4F)c(F)cc3F)c2nc1C(C)(C)O` [Compound 13, 2-(3-(3,5-difluoro-6-(((3S,4S)-4-fluoropiperidin-3-yl)amino)pyridin-2-yl)-6-methoxypyrazolo[1,5-a]pyrimidin-5-yl)propan-2-ol]: < 0.17 nM.

Staying with this assay, now noted: Table 18; no ATP.
Consider `COc1cn2ncc(-c3nc(N[C@H]4CNCC[C@@H]4F)ncc3F)c2nc1C(C)(C)O` [Compound 6a, 2-(3-(5-fluoro-2-(((3S,4S)-4-fluoropiperidin-3-yl)amino)pyrimidin-4-yl)-6-methoxypyrazolo[1,5-a]pyrimidin-5-yl)propan-2-ol], for which the dissociation constant Kd is < 0.17 nM. `COc1cn2ncc(-c3cncc(N[C@H]4CNCC[C@@H]4F)n3)c2nc1C1CC1` [Compound 12a, 6-(5-cyclopropyl-6-methoxypyrazolo[1,5-a]pyrimidin-3-yl)-N-((3S,4S)-4-fluoropiperidin-3-yl)pyrazin-2-amine] came in with a Kd of 0.62 nM. Same read-out and setting: the same measure for `COc1cn2ncc(-c3nc(N[C@@H]4CCCNC4)ncc3F)c2nc1C1CC1` [Compound 14a, (R)-4-(5-cyclopropyl-6-methoxypyrazolo[1,5-a]pyrimidin-3-yl)-5-fluoro-N-(piperidin-3-yl)pyrimidin-2-amine]: < 0.17 nM; for `COc1cn2ncc(-c3nc(N[C@H]4CNCC[C@@H]4F)ncc3F)c2nc1C1CC1` [Compound 15a, 4-(5-cyclopropyl-6-methoxypyrazolo[1,5-a]pyrimidin-3-yl)-5-fluoro-N-((3S,4S)-4-fluoropiperidin-3-yl)pyrimidin-2-amine]: 0.34 nM. Still for that read-out and setting: the same measure for `COc1cn2ncc(-c3ccnc(N[C@H]4CNCC[C@@H]4F)n3)c2nc1C1CC1` [Compound 7a, 4-(5-cyclopropyl-6-methoxypyrazolo[1,5-a]pyrimidin-3-yl)-N-((3S,4S)-4-fluoropiperidin-3-yl)pyrimidin-2-amine]: 0.79 nM.

One may read the Kd as the equilibrium constant for the complex coming apart. Read a low Kd as higher affinity.

Source of the values: patent US20260374773A1, “MULTI-CYCLIC IRAK AND FLT3 INHIBITING COMPOUNDS AND USES THEREOF” (CHILDREN'S HOSPITAL MEDICAL CENTER, priority 2022, published 2026).
